# Reference: PubChem BioAssay AID248 (DTP/NCI, 2004)
# “And” between values parts separate entries of the source, which are not always exact repeats. Identical values can stand only once. Toxic doses and inconclusive results are not listed.
# Tested on: L1210 leukemia ip in BDF1 mice, survival T/C
# Assay: NCI In Vivo Anticancer Drug Screen. Data for tumor model L1210 Leukemia (intraperitoneal) in B6D2F1 (BDF1) mice
# Settings: endpoint: mean survival time, higher = longer survival
# Method in brief: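 Tumor was transplanted into mice, which were then dosed with test compound or vehicle alone. Survival was recorded for each group, and the treated figure was expressed relative to the control figure.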
structure (smiles),measurement,setting,value
O=c1[nH]cc(N(CCCl)CCCl)c(=O)[nH]1,T/C,"dose: 0.04 mg/kg/injection, schedule: Q01DX001 (ip), vehicle: carboxymethylcellulose (CMC)",106 % of control
same,T/C,"dose: 0.05 mg/kg/injection, schedule: Q01DX Z (ip), vehicle: carboxymethylcellulose (CMC)",107 % of control
same,T/C,"dose: 0.05 mg/kg/injection, schedule: Q#A X Z (ip), vehicle: carboxymethylcellulose (CMC)",101 % of control
same,T/C,"dose: 0.07 mg/kg/injection, schedule: Q01DX001 (ip), vehicle: carboxymethylcellulose (CMC)",101 % of control
same,T/C,"dose: 0.07 mg/kg/injection, schedule: Q03DX006 (ip), vehicle: carboxymethylcellulose (CMC)",123 % of control
same,T/C,"dose: 0.09 mg/kg/injection, schedule: Q#A X Z (ip), vehicle: carboxymethylcellulose (CMC)",106 % of control
same,T/C,"dose: 0.1 mg/kg/injection, schedule: Q01DX Z (ip), vehicle: carboxymethylcellulose (CMC)",102 % of control
same,T/C,"dose: 0.1 mg/kg/injection, schedule: Q01DX Z (ip), vehicle: saline",157 % of control
same,T/C,"dose: 0.13 mg/kg/injection, schedule: Q01DX001 (ip), vehicle: carboxymethylcellulose (CMC)",100 % of control
same,T/C,"dose: 0.16 mg/kg/injection, schedule: Q07DX003 (ip), vehicle: carboxymethylcellulose (CMC)",108 % of control
same,T/C,"dose: 0.19 mg/kg/injection, schedule: Q#A X Z (ip), vehicle: carboxymethylcellulose (CMC)",110 % of control
same,T/C,"dose: 0.25 mg/kg/injection, schedule: Q01DX001 (ip), vehicle: carboxymethylcellulose (CMC)",105 % of control
same,T/C,"dose: 0.3 mg/kg/injection, schedule: Q01DX Z (ip), vehicle: saline",159 % of control
same,T/C,"dose: 0.3 mg/kg/injection, schedule: Q03DX006 (ip), vehicle: carboxymethylcellulose (CMC)",109 % of control
same,T/C,"dose: 0.32 mg/kg/injection, schedule: Q07DX003 (ip), vehicle: carboxymethylcellulose (CMC)",102 % of control
same,T/C,"dose: 0.37 mg/kg/injection, schedule: Q#A X Z (ip), vehicle: carboxymethylcellulose (CMC)",119 % of control
same,T/C,"dose: 0.38 mg/kg/injection, schedule: Q01DX006 (iv), vehicle: carboxymethylcellulose (CMC)",91 % of control
same,T/C,"dose: 0.38 mg/kg/injection, schedule: Q01DX Z (im), vehicle: carboxymethylcellulose (CMC)",98 % of control
same,T/C,"dose: 0.38 mg/kg/injection, schedule: Q01DX Z (sc), vehicle: carboxymethylcellulose (CMC)",104 % of control
same,T/C,"dose: 0.5 mg/kg/injection, schedule: Q01DX001 (ip), vehicle: carboxymethylcellulose (CMC)",170 % of control
same,T/C,"dose: 0.6 mg/kg/injection, schedule: Q03DX006 (ip), vehicle: carboxymethylcellulose (CMC)",170 % of control
same,T/C,"dose: 0.63 mg/kg/injection, schedule: Q07DX003 (ip), vehicle: carboxymethylcellulose (CMC)",121 % of control
same,T/C,"dose: 0.7 mg/kg/injection, schedule: Q01DX Z (ip), vehicle: saline",101 % of control
same,T/C,"dose: 0.75 mg/kg/injection, schedule: Q01DX006 (iv), vehicle: carboxymethylcellulose (CMC)",110 % of control
same,T/C,"dose: 0.75 mg/kg/injection, schedule: Q01DX015 (ip), vehicle: carboxymethylcellulose (CMC)",178 % of control
same,T/C,"dose: 0.75 mg/kg/injection, schedule: Q01DX Z (im), vehicle: carboxymethylcellulose (CMC)",101 % of control
same,T/C,"dose: 0.75 mg/kg/injection, schedule: Q01DX Z (ip), vehicle: carboxymethylcellulose (CMC)",119 % of control
same,T/C,"dose: 0.75 mg/kg/injection, schedule: Q01DX Z (sc), vehicle: carboxymethylcellulose (CMC)",107 % of control
same,T/C,"dose: 0.8 mg/kg/injection, schedule: Q01DX Z (ip), vehicle: other",109 % of control
same,T/C,"dose: 1.1 mg/kg/injection, schedule: Q01DX015 (ip), vehicle: carboxymethylcellulose (CMC)",182 % of control
same,T/C,"dose: 1.1 mg/kg/injection, schedule: Q03DX006 (ip), vehicle: carboxymethylcellulose (CMC)",181 % of control
same,T/C,"dose: 1.2 mg/kg/injection, schedule: Q01DX Z (ip), vehicle: alkali diluted with saline",118 % of control
same,T/C,"dose: 1.2 mg/kg/injection, schedule: Q01DX Z (ip), vehicle: saline",159 % of control
same,T/C,"dose: 1.25 mg/kg/injection, schedule: Q07DX003 (ip), vehicle: carboxymethylcellulose (CMC)",114 % of control and 201 % of control
same,T/C,"dose: 1.3 mg/kg/injection, schedule: Q01DX Z (ip), vehicle: other",120 % of control
same,T/C,"dose: 1.5 mg/kg/injection, schedule: Q01DX006 (iv), vehicle: carboxymethylcellulose (CMC)",104 % of control and 109 % of control
same,T/C,"dose: 1.5 mg/kg/injection, schedule: Q01DX Z (im), vehicle: carboxymethylcellulose (CMC)",108 % of control
same,T/C,"dose: 1.5 mg/kg/injection, schedule: Q01DX Z (ip), vehicle: carboxymethylcellulose (CMC)",115 % of control
same,T/C,"dose: 1.5 mg/kg/injection, schedule: Q01DX Z (oral), vehicle: carboxymethylcellulose (CMC)",119 % of control
same,T/C,"dose: 1.5 mg/kg/injection, schedule: Q01DX Z (sc), vehicle: carboxymethylcellulose (CMC)",115 % of control
same,T/C,"dose: 1.5 mg/kg/injection, schedule: Q#A X Z (ip), vehicle: carboxymethylcellulose (CMC)",111 % of control
same,T/C,"dose: 1.6 mg/kg/injection, schedule: Q01DX001 (ip), vehicle: gum acacia",110 % of control
same,T/C,"dose: 1.7 mg/kg/injection, schedule: Q01DX015 (ip), vehicle: carboxymethylcellulose (CMC)",170 % of control
same,T/C,"dose: 1.8 mg/kg/injection, schedule: Q01DX Z (ip), vehicle: alkali diluted with saline",112 % of control
same,T/C,"dose: 1.8 mg/kg/injection, schedule: Q01DX Z (ip), vehicle: other",109 % of control
same,T/C,"dose: 2.0 mg/kg/injection, schedule: Q01DX001 (ip), vehicle: carboxymethylcellulose (CMC)",109 % of control and 123 % of control
same,T/C,"dose: 2.4 mg/kg/injection, schedule: Q01DX001 (ip), vehicle: gum acacia",186 % of control
same,T/C,"dose: 2.5 mg/kg/injection, schedule: Q01DX Z (ip), vehicle: alkali diluted with saline",116 % of control
same,T/C,"dose: 2.7 mg/kg/injection, schedule: Q01DX Z (ip), vehicle: other",124 % of control
same,T/C,"dose: 3.0 mg/kg/injection, schedule: Q01DX006 (iv), vehicle: carboxymethylcellulose (CMC)",112 % of control
same,T/C,"dose: 3.0 mg/kg/injection, schedule: Q01DX Z (ip), vehicle: carboxymethylcellulose (CMC)",105 % of control and 115 % of control
same,T/C,"dose: 3.0 mg/kg/injection, schedule: Q01DX Z (ip), vehicle: saline",112 % of control
same,T/C,"dose: 3.6 mg/kg/injection, schedule: Q01DX001 (ip), vehicle: carboxymethylcellulose (CMC)",163 % of control
same,T/C,"dose: 3.6 mg/kg/injection, schedule: Q01DX001 (ip), vehicle: gum acacia",150 % of control
same,T/C,"dose: 3.7 mg/kg/injection, schedule: Q01DX Z (ip), vehicle: saline",90 % of control
same,T/C,"dose: 4.5 mg/kg/injection, schedule: Q03DX006 (ip), vehicle: carboxymethylcellulose (CMC)",111 % of control
same,T/C,"dose: 5.0 mg/kg/injection, schedule: Q01DX001 (ip), vehicle: carboxymethylcellulose (CMC)",161 % of control
same,T/C,"dose: 5.0 mg/kg/injection, schedule: Q07DX003 (ip), vehicle: carboxymethylcellulose (CMC)",188 % of control
same,T/C,"dose: 5.4 mg/kg/injection, schedule: Q01DX001 (ip), vehicle: gum acacia",172 % of control and 330 % of control
same,T/C,"dose: 6.0 mg/kg/injection, schedule: Q01DX Z (im), vehicle: carboxymethylcellulose (CMC)",95 % of control
same,T/C,"dose: 6.0 mg/kg/injection, schedule: Q01DX Z (oral), vehicle: carboxymethylcellulose (CMC)",104 % of control
same,T/C,"dose: 6.0 mg/kg/injection, schedule: Q01DX Z (sc), vehicle: carboxymethylcellulose (CMC)",105 % of control
same,T/C,"dose: 6.0 mg/kg/injection, schedule: Q#A X Z (ip), vehicle: carboxymethylcellulose (CMC)",154 % of control
same,T/C,"dose: 10.0 mg/kg/injection, schedule: Q01DX001 (ip), vehicle: carboxymethylcellulose (CMC)",105 % of control and 123 % of control
same,T/C,"dose: 12.0 mg/kg/injection, schedule: Q01DX006 (iv), vehicle: carboxymethylcellulose (CMC)",115 % of control
same,T/C,"dose: 20.0 mg/kg/injection, schedule: Q01DX001 (ip), vehicle: carboxymethylcellulose (CMC)",120 % of control
same,T/C,"dose: 29.0 micrograms/kg/injection, schedule: Q01DX Z (ip), vehicle: saline",119 % of control
same,T/C,"dose: 44.0 micrograms/kg/injection, schedule: Q01DX Z (ip), vehicle: saline",121 % of control
same,T/C,"dose: 100.0 micrograms/kg/injection, schedule: Q01DX Z (ip), vehicle: saline",113 % of control
O=C(O)C12CCC(CC1)C2,T/C,"dose: 50.0 mg/kg/injection, schedule: Q01DX009 (ip), vehicle: saline",106 % of control
same,T/C,"dose: 100.0 mg/kg/injection, schedule: Q01DX009 (ip), vehicle: saline",110 % of control
same,T/C,"dose: 200.0 mg/kg/injection, schedule: Q01DX009 (ip), vehicle: saline",112 % of control
same,T/C,"dose: 400.0 mg/kg/injection, schedule: Q01DX009 (ip), vehicle: saline",96 % of control
CN1CCC(C=C2c3ccccc3CCc3ccccc32)C1 (centres undefined),T/C,"dose: 3.12 mg/kg/injection, schedule: Q01DX009 (ip), vehicle: saline",100 % of control
same,T/C,"dose: 6.25 mg/kg/injection, schedule: Q01DX009 (ip), vehicle: saline",92 % of control
same,T/C,"dose: 12.5 mg/kg/injection, schedule: Q01DX009 (ip), vehicle: saline",100 % of control
same,T/C,"dose: 25.0 mg/kg/injection, schedule: Q01DX009 (ip), vehicle: saline",98 % of control
COC(=O)/C=C(\C)C(C)=Nc1ccccc1,T/C,"dose: 100.0 mg/kg/injection, schedule: Q04DX003 (ip), vehicle: saline with Tween-80",106 % of control
same,T/C,"dose: 200.0 mg/kg/injection, schedule: Q04DX003 (ip), vehicle: saline with Tween-80",106 % of control
